Test results as given in article PMC11721022, “Standardized Chromatographic and Computational Approaches for Lipophilicity Analysis of Five Gliflozin Antidiabetic Drugs in Relation to Their Biological Activity” (Molecules, 2024).

Key:
[1] = design: method as in PMID 30151080, PMID 34586753; details: cited from earlier work
[2] = Experimental lipophilicity from HPLC and TLC methods combined (standardization procedure); type: physicochemical; details: mean over all HPLC and TLC systems
Procedure: (§1) In our study, six standards of known lipophilicity in the range of 0.62–3.5 were used. For each standard, the same chromatographic procedures were performed as for the analyzed drugs, obtaining their RF or tR values. Then, the RM, RMW, log k, and log kW values were calculated using Equations (1)–(3). In the next step, correlations between the chromatographically obtained RMW or log kW values for these six standards and their literary log P values were calculated and expressed as respective calibration equations (Table 1). In addition, using these calibration equations, the chromatographic systems were evaluated by calculating the log PEXP values for the standards. […] From these calibration equations, the experimental log PTLC and log PHPLC (log PEXP) for the examined drugs were determined, using their RMW and log kW values.

[3] = HPLC lipophilicity (log kW, standardized to log PEXP); type: physicochemical
Procedure: All experiments were performed using an HPLC system equipped with a solvent delivery pump 515 and a UV/VIS detector 2487 from Waters UK Sales (Elstree, UK), a degasser 964 from Jasco Inc. (Easton, MD, USA), and LiChrospher RP18, RP8 and CN columns (125 × 4.0 mm, 5 µm) from Merck. For RP18 and RP8 stationary phases, acetonitrile was used in the range of 35–60% and methanol in the range of 55–80%. For CN adsorbent, acetonitrile was used in the range 30–55% and methanol in the range 45–70%. For all chromatographic systems, a 5% step change in the concentration of the organic modifier was applied (Table S2 in Supplementary Files). The flow for each mobile phase and each chromatographic run was 1 mL/min while detection was performed at 260 nm. The analyzed drugs and six reference substances were dissolved in methanol to obtain concentrations of 0.1 mg/mL and injected into the column in the volume of 20 µL. All experiments were performed in triplicate with a constant temperature of 23 ± 0.5 °C.
as §1

SGLT2 [4] = assay: SGLT2 inhibition (literature); type: biochemical; details: pIC50 (SGLT2, literature) minus mean log PEXP
[5] = design: method as in PMID 30151080, PMID 34586753; details: cited from earlier work; remark: listed apart in the source
SGLT2 [6] = details: Table 6; cited from earlier work
[7] = TLC lipophilicity (RMW, standardized to log PEXP); type: physicochemical
Procedure: Plates (10 × 10 cm, 0.25 mm) pre-coated with silica gel RP18F254, RP8F254 and CNF254 from Merck were used as the stationary phases. The tested drugs and six reference substances were dissolved in methanol to obtain working solutions at a concentration of 2 mg/mL. Volumes of 5 µL of these working solutions were spotted onto the plates which were then developed at a distance of 9 cm in the horizontal developing chambers (Chromdes, Lublin, Poland). The ranges for the organic modifier concentration in water varied depending on the type of stationary phase and the modifier used. For RP18 and RP8 systems, acetonitrile in the range 35–60% and methanol in the range 60–85% were used. For CN systems, acetonitrile was used in the range of 40–60% while methanol was used in the range of 45–65%. […] All experiments were performed in triplicate with a constant temperature of 23 ± 0.5 °C.
as §1

[8] = design: method as in earlier work; details: established lipophilicity of standards; cited from earlier work
[9] = HPLC.CN/MeOH (CN column, methanol modifier)
[10] = LiChrospher CN HPLC column (125 × 4.0 mm, 5 µm), HPLC.CN/ACN (CN column, acetonitrile modifier)
[11] = LiChrospher RP8 HPLC column (125 × 4.0 mm, 5 µm), HPLC.RP8/ACN
[12] = LiChrospher RP18 HPLC column (125 × 4.0 mm, 5 µm), HPLC.RP18/ACN
[13] = LiChrospher CN HPLC column (125 × 4.0 mm, 5 µm), HPLC.CN/MeOH (CN column, methanol modifier)
[14] = LiChrospher RP18 HPLC column (125 × 4.0 mm, 5 µm), HPLC.RP18/MeOH
[15] = LiChrospher RP8 HPLC column (125 × 4.0 mm, 5 µm), HPLC.RP8/MeOH

Row | Structure (SMILES) | CL (apparent total clearance) [1] [L/h] | T0.5 (half-life) [1] [h] | VD (apparent volume of distribution) [1] [L] | log PEXP (Mean ± SD) [2] | log PEXP ([3]; HPLC.RP8/MeOH) | chromatographic logP [3, 10] | chromatographic logP [3, 11] | chromatographic logP [3, 12] | LLE (lipophilic ligand efficiency) (SGLT2 [4]) | PB (protein-binding capacity) [5] [%] | IC50 (SGLT2 [6]) [nM] | chromatographic logP ([7]; TLC.CN/ACN) | chromatographic logP ([7]; TLC.CN/MeOH) | chromatographic logP ([7]; TLC.RP8/ACN) | chromatographic logP ([7]; TLC.RP8/MeOH) | chromatographic logP ([7]; TLC.RP18/ACN) | chromatographic logP ([7]; TLC.RP18/MeOH) | chromatographic logP [3, 13] | chromatographic logP [3, 14] | further results
1 | CCOc1ccc(Cc2cc([C@@H]3O[C@H](SC)[C@@H](O)[C@H](O)[C@H]3O)ccc2Cl)cc1 [SOTA, sotagliflozin] | 261 | 21 | 9392 | 3.94 ± 0.67 | 4.43 | 3.59 | 3.28 | 3.4 | 4.8 | 98 | 1.8 | 2.32 | 4.61 | 4.08 | 4.26 | 3.69 | 4.5 |  |  | log PEXP [3, 9]: 4.57; log PEXP ([3]; HPLC.RP18/MeOH): 4.50
2 | c1ccc(Nc2ccccc2)cc1 [S6, diphenylamine] |  |  |  |  |  |  |  |  |  |  |  |  |  |  |  |  |  |  |  | log P [8]: 3.5
3 | Nc1ccccc1O [S1, 2-aminophenol] |  |  |  |  |  |  |  |  |  |  |  |  |  |  |  |  |  |  |  | log P [8]: 0.62
4 | Cc1ccc([C@@H]2O[C@H](CO)[C@@H](O)[C@H](O)[C@H]2O)cc1Cc1ccc(-c2ccc(F)cc2)s1 [CANA, canagliflozin] | 11.52 |  | 83.5 | 3.99 ± 0.91 | 4.43 | 3.73 |  |  | 4.67 | 99 | 2.2 | 2.4 | 5.86 | 3.55 | 4.07 | 3.47 | 4.43 | 4.91 | 4.55 | log PEXP ([3]; HPLC.RP8/ACN): 3.23; log PEXP ([3]; HPLC.RP18/ACN): 3.28
5 | CCOc1ccc(Cc2cc([C@@H]3O[C@H](CO)[C@@H](O)[C@H](O)[C@H]3O)ccc2Cl)cc1 [DAPA, dapagliflozin] | 12.42 |  | 118 | 2.83 ± 0.78 | 3.20 |  | 2.11 | 2 | 6.12 | 91 |  | 2.03 | 4.72 | 2.3 |  | 2.22 | 3.58 | 3.08 | 3.27 | log PEXP ([3]; HPLC.CN/ACN (CN column, acetonitrile modifier)): 2.34; log PEXP ([7]; TLC.RP8/MeOH): 3.14
6 | OC[C@H]1O[C@@H](c2ccc(Cl)c(Cc3ccc(O[C@H]4CCOC4)cc3)c2)[C@H](O)[C@@H](O)[C@@H]1O [EMPA, empagliflozin] | 10.6 | 12.4 | 73.8 | 2.28 ± 0.73 |  | 2.3 |  | 1.35 | 6.23 | 86 |  | 1.87 | 3.51 | 1.68 | 2.48 |  | 2.99 |  | 2.85 | log PEXP [3, 9]: 2.66; log PEXP ([3]; HPLC.RP8/ACN): 1.70; chromatographic logP [3, 15]: 2.78; log PEXP ([7]; TLC.RP18/ACN): 1.30
7 | CCOc1ccc(Cc2cc([C@]34OC[C@](CO)(O3)[C@@H](O)[C@H](O)[C@H]4O)ccc2Cl)cc1 [ERTU, ertugliflozin] | 10.68 | 11 | 85.5 | 3.04 ± 0.61 |  | 2.49 | 2.4 |  | 6.02 | 94 | 0.87 | 2.01 | 3.97 |  | 3.54 | 3.13 | 3.27 | 3.36 | 3.59 | log PEXP ([3]; HPLC.RP18/ACN): 2.22; chromatographic logP [3, 15]: 3.49; log PEXP ([7]; TLC.RP8/ACN): 2.99
